# In patent US4791215A, “Derivatives of glutamic acid and aspartic acid” (priority 1984, dated 1988):
# Columns and labels:
# Format in all cases: in vivo, rats
# [1] = system: endogenous opiates analgesia; test: Analgesic activity of endogenous opiates released by transcutaneous shock, Tail Flick Test (Experiment 3)
# Procedure, shortened: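 Non-fasted male rats (~200 g) stressed with 60 Hz-2.5 mA front-leg current, 1 s pulses every 5 s for 20 min, to release endogenous opiates. Analgesia measured by tail flick test.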
# [2] = system: enkephalinamide (DALA) analgesia; test: Potentiation of DALA (enkephalinamide) analgesia, i.c.v., Tail Flick Test (Experiment 4); parameters: scale not given here
# Source text: Experiment No. 4: Potentiation of the analgesic activities of enkephalins induced by some of the compounds of the invention. […]
# [3] = system: activity of analgesic drugs; test: Hot-plate test, potentiation of analgesic drugs (Experiment 2)
# Procedure, shortened: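 Male rats of about 150 g, not fasted, five per group, were placed on a plate held at 55°±1° C. Licking or jumping latency was recorded before and at 10–90 min after dosing, with a 30 s cut-off. A positive response meant at least a doubling of reaction time, reported as positives/treated.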
smiles,measurement,setting,value
CCCN(CCC)C(=O)C(CCC(=O)O)NC(=O)c1cccc(C#N)c1 (stereo not shown) [Compound C-20],"average latency, Tail Flick","[1]; compound 1 mg/kg iv + stress, 5'",7.5 ± 0.3 s
same,"average latency, Tail Flick","[1]; compound 1 mg/kg iv + stress, 10'",5.34 ± 0.46 s
same,"average latency, Tail Flick","[1]; compound 1 mg/kg iv + stress, 15'",3.88 ± 0.29 s
same,"average latency, Tail Flick","[1]; compound 3 mg/kg iv + stress, 5'",8.48 ± 0.62 s
same,"average latency, Tail Flick","[1]; compound 3 mg/kg iv + stress, 10'",6.42 ± 0.21 s
same,"average latency, Tail Flick","[1]; compound 3 mg/kg iv + stress, 15'",4.98 ± 0.36 s
same,"analgesic activity, Tail Flick","[2]; DALA 10 + compound 0.003 μg/kg ICV, 10'",5.7
same,"analgesic activity, Tail Flick","[2]; DALA 10 + compound 0.003 μg/kg ICV, 20'",44.6
same,"analgesic activity, Tail Flick","[2]; DALA 10 + compound 0.003 μg/kg ICV, 30'",32.3
same,"analgesic activity, Tail Flick","[2]; DALA 10 + compound 0.003 μg/kg ICV, 45'",30.1
same,"analgesic activity, Tail Flick","[2]; DALA 10 + compound 0.003 μg/kg ICV, 60'",24.5
same,"analgesic activity, Tail Flick","[2]; DALA 10 + compound 0.003 μg/kg ICV, 90'",72.
same,"MEAN analgesic activity, Tail Flick",[2]; DALA 10 + compound 0.003 μg/kg ICV,24.1
same,"analgesic activity, Tail Flick","[2]; DALA 10 + compound 0.01 μg/kg ICV, 10'",16.5
same,"analgesic activity, Tail Flick","[2]; DALA 10 + compound 0.01 μg/kg ICV, 20'",62.5
same,"analgesic activity, Tail Flick","[2]; DALA 10 + compound 0.01 μg/kg ICV, 30'",64.1
same,"analgesic activity, Tail Flick","[2]; DALA 10 + compound 0.01 μg/kg ICV, 45'",45.4
same,"analgesic activity, Tail Flick","[2]; DALA 10 + compound 0.01 μg/kg ICV, 60'",45.3
same,"analgesic activity, Tail Flick","[2]; DALA 10 + compound 0.01 μg/kg ICV, 90'",16.3
same,"MEAN analgesic activity, Tail Flick",[2]; DALA 10 + compound 0.01 μg/kg ICV,41.7
same,TOTAL positives,[3]; ASA 100 + compound 5 mg/kg i.p.,12 x/30
same,positive responses over number treated,"[3]; ASA 100 + compound 5 mg/kg i.p., 10'",2/5
same,positive responses over number treated,"[3]; ASA 100 + compound 5 mg/kg i.p., 20'",2/5
same,positive responses over number treated,"[3]; ASA 100 + compound 5 mg/kg i.p., 30'",2/5
same,positive responses over number treated,"[3]; ASA 100 + compound 5 mg/kg i.p., 45'",3/5
same,positive responses over number treated,"[3]; ASA 100 + compound 5 mg/kg i.p., 60'",3/5
same,positive responses over number treated,"[3]; ASA 100 + compound 5 mg/kg i.p., 90'",0/5
same,TOTAL positives,[3]; ASA 100 + compound 20 mg/kg i.p.,17 x/30
same,positive responses over number treated,"[3]; ASA 100 + compound 20 mg/kg i.p., 10'",1/5
same,positive responses over number treated,"[3]; ASA 100 + compound 20 mg/kg i.p., 20'",3/5
same,positive responses over number treated,"[3]; ASA 100 + compound 20 mg/kg i.p., 30'",3/5
same,positive responses over number treated,"[3]; ASA 100 + compound 20 mg/kg i.p., 45'",3/5
same,positive responses over number treated,"[3]; ASA 100 + compound 20 mg/kg i.p., 60'",4/5
same,positive responses over number treated,"[3]; ASA 100 + compound 20 mg/kg i.p., 90'",3/5
same,TOTAL positives,[3]; ASA 100 + compound 50 mg/kg i.p.,22 x/30
same,positive responses over number treated,"[3]; ASA 100 + compound 50 mg/kg i.p., 10'",3/5
same,positive responses over number treated,"[3]; ASA 100 + compound 50 mg/kg i.p., 20'",2/5
same,positive responses over number treated,"[3]; ASA 100 + compound 50 mg/kg i.p., 30'",5/5
same,positive responses over number treated,"[3]; ASA 100 + compound 50 mg/kg i.p., 45'",5/5
same,positive responses over number treated,"[3]; ASA 100 + compound 50 mg/kg i.p., 60'",4/5
same,positive responses over number treated,"[3]; ASA 100 + compound 50 mg/kg i.p., 90'",3/5
same,effect on analgesic activity of propoxyphene,[3]; compound 3 mg/kg i.p.,can double the analgesic activity of propoxyphene
same,TOTAL positives,[3]; propoxyphene 15 + compound 1 mg/kg i.p.,16 x/30
same,positive responses over number treated,"[3]; propoxyphene 15 + compound 1 mg/kg i.p., 10'",2/5
same,positive responses over number treated,"[3]; propoxyphene 15 + compound 1 mg/kg i.p., 20'",2/5
same,positive responses over number treated,"[3]; propoxyphene 15 + compound 1 mg/kg i.p., 30'",3/5
same,positive responses over number treated,"[3]; propoxyphene 15 + compound 1 mg/kg i.p., 45'",3/5
same,positive responses over number treated,"[3]; propoxyphene 15 + compound 1 mg/kg i.p., 60'",3/5
same,positive responses over number treated,"[3]; propoxyphene 15 + compound 1 mg/kg i.p., 90'",3/5
same,TOTAL positives,[3]; propoxyphene 15 + compound 3 mg/kg i.p.,25 x/30
same,positive responses over number treated,"[3]; propoxyphene 15 + compound 3 mg/kg i.p., 10'",3/5
same,positive responses over number treated,"[3]; propoxyphene 15 + compound 3 mg/kg i.p., 20'",5/5
same,positive responses over number treated,"[3]; propoxyphene 15 + compound 3 mg/kg i.p., 30'",4/5
same,positive responses over number treated,"[3]; propoxyphene 15 + compound 3 mg/kg i.p., 45'",5/5
same,positive responses over number treated,"[3]; propoxyphene 15 + compound 3 mg/kg i.p., 60'",4/5
same,positive responses over number treated,"[3]; propoxyphene 15 + compound 3 mg/kg i.p., 90'",4/5
same,TOTAL positives,[3]; propoxyphene 15 + compound 10 mg/kg i.p.,27 x/30
same,positive responses over number treated,"[3]; propoxyphene 15 + compound 10 mg/kg i.p., 10'",4/5
same,positive responses over number treated,"[3]; propoxyphene 15 + compound 10 mg/kg i.p., 20'",5/5
same,positive responses over number treated,"[3]; propoxyphene 15 + compound 10 mg/kg i.p., 30'",5/5
same,positive responses over number treated,"[3]; propoxyphene 15 + compound 10 mg/kg i.p., 45'",5/5
same,positive responses over number treated,"[3]; propoxyphene 15 + compound 10 mg/kg i.p., 60'",5/5
same,positive responses over number treated,"[3]; propoxyphene 15 + compound 10 mg/kg i.p., 90'",3/5
same,dose of maximum effect (propoxyphene potentiation),[3]; with propoxyphene,10 mg/kg i.p.
